These results are taken from ChEMBL document CHEMBL4765469, “2-((3,5-Dinitrobenzyl)thio)quinazolinones: Potent Antimycobacterial Agents Activated by Deazaflavin (F)-Dependent Nitroreductase (Ddn)” (J Med Chem, 2021).

In data set [1] the test system is Mycobacterium tuberculosis. Put plainly: Antitubercular activity against Mycobacterium tuberculosis H37Rv. It is filed as functional.
Data set [2] can be described thus: Inhibition of Mycobacterium tuberculosis thymidylate kinase.
A short description of data set [3]: Cytotoxicity in human MRC5 cells by neutral red uptake assay. It counts as cell-based.
Data set [4] deals with Mycobacterium tuberculosis. Put plainly: Ratio of MIC for antitubercular activity against Mycobacterium tuberculosis H37Rv ATCC 27294 grown under 7H9/ glucose liquid culture in presence of BSA to MIC for antitubercular activity against Mycobacterium tuberculosis H37Rv ATCC 27294 grown under 7H9/ glucose liquid culture. It counts as functional. Conditions: read-out: MIC>99.

In data set [5] the test system is Mycobacterium tuberculosis. As to the kind of experiment: Antitubercular activity against Mycobacterium tuberculosis H37Rv ATCC 27294 grown under Middlebrook 7H9 Broth assessed as inhibition of all visible growth incubated for 7 to 14 days. It counts as functional. Conditions: time 7-14 day.
In data set [6] the test system is Mycobacterium tuberculosis. Put plainly: Antitubercular activity against Mycobacterium tuberculosis H37Rv ATCC 27294 grown under 7H9/ glucose liquid culture in presence of BSA assessed as inhibition of all visible growth incubated for 7 to 14 days. The following applies: time 7-14 day. It is filed as functional.
The test system of data set [7] is Mycobacterium tuberculosis. As to the kind of experiment: Antitubercular activity against Mycobacterium tuberculosis H37Rv ATCC 27294 grown under GAST/Fe medium assessed as inhibition of all visible growth incubated for 7 to 14 days. It is filed as functional. Conditions: time 7-14 day.
The nature of data set [8]: Genotoxicity in Salmonella typhimurium TA100 up to 349 uM incubated for 48 hrs in presence of rat liver S9 fraction by Ames test. It is filed as toxicity, subcellular. The following applies: salmonella enterica subsp. enterica serovar typhimurium, s9, 48 h.
Data set [9] concerns Mycobacterium tuberculosis. Put plainly: Antitubercular activity against Mycobacterium tuberculosis 14A1 deficient in nitroreductase rv3547 assessed as inhibition of all visible growth grown under 7H9/ glucose liquid culture incubated for 7 to 14 days. It counts as functional. Conditions: time 7-14 day.
The nature of data set [10]: Genotoxicity in Salmonella typhimurium TA100 up to 349 uM incubated for 48 hrs in absence of rat liver S9 fraction by Ames test. It counts as toxicity. The following applies: salmonella enterica subsp. enterica serovar typhimurium, s9, 48 h. On the technique in general: The Ames test uses bacterial strains that need an amino acid and regain growth without it when mutated back.

Data set [11] in a line: Genotoxicity in Salmonella typhimurium TA98 up to 349 uM incubated for 48 hrs in absence of rat liver S9 fraction by Ames test. It counts as toxicity. Conditions: salmonella enterica subsp. enterica serovar typhimurium, s9, 48 h.
Data set [12] has as its system Mycobacterium tuberculosis. As to the kind of experiment: Antitubercular activity against Mycobacterium tuberculosis H37Rv ATCC 27294 grown under 7H9/ADC assessed as inhibition of all visible growth incubated for 7 to 14 days. The following applies: time 7-14 day. It is filed as functional.
Data set [13] in a line: Genotoxicity in Salmonella typhimurium TA98 up to 349 uM incubated for 48 hrs in presence of rat liver S9 fraction by Ames test. It is filed as toxicity, subcellular. Conditions: salmonella enterica subsp. enterica serovar typhimurium, s9, 48 h.
The nature of data set [14]: Inhibition of Mycobacterium tuberculosis thymidylate kinase in presence of ATP, dTMP, NADH and phosphoenol pyruvate by spectrophotometric assay.

Values after ≈ are worked out from the molar mass of the structure shown.

For orientation: MIC means the smallest concentration in the dilution series that meets the test's criterion for growth inhibition. As usually defined, the IC50 is the concentration at which inhibition is half-maximal. On to `COc1cccc(-c2cc(SC)c(C#N)c(=O)[nH]2)c1`, for which, in [1], the MIC is more than 64 µM. Moreover, in data set [2], the IC50 worked out at 1.5 µM.

By CC50 is commonly meant the concentration that lowers cell viability or growth by half. A higher CC50 goes with better tolerance by the cells. As usually defined, the MIC99 is an inhibitory concentration at the 99% level, which refers to growth in some studies and to a panel of isolates in others. For the compound `O=c1[nH]c(SCc2cc([N+](=O)[O-])cc([N+](=O)[O-])c2)nc2ccccc12`, the CC50 in data set [3] is more than 64 µM. Moreover, in [4], the MIC ratio, with BSA / without BSA is 2.6 µM. In addition, the MIC99 came to 0.6 µM (≈ 0.215 µg/mL) in data set [5]; 1.56 µM in [6]; 0.78 µM (≈ 0.28 µg/mL) in [7]; 12.5 µM (≈ 4.48 µg/mL) in [9]; 2.3 µM (≈ 0.824 µg/mL) in data set [12]. For the same compound, the Activity result is recorded as “Non-Toxic” in data set [8], “Non-Toxic” in [10], “Toxic” in data set [11] and “Non-Toxic” in data set [13]. Besides, the IC50 in [14] stood at 120 µM.
